Laboratory results taken from patent US20250205341A1, “PROTEIN DELIVERY COMPOSITION CONTAINING BILE SALT AND CATIONIC PEPTIDE AND USE THEREOF” (BION INC., priority 2022, published 2025).
Non-standard residues stand in square brackets, D forms with d. No end group written: not given here.

Experiments:
Type in all cases: in vivo
[1] = system: C57BL/6 mice maintaining normal blood glucose levels; test: Insulin absorption upon oral administration (into the stomach using a zonde), blood glucose lowering; settings: 100 mM taurocholate + 2U/kg insulin + 0.1, 1, 10 μM SEQ6 or 1, 10, 100 μM SEQ2; FIG. 2
Description: Examination was made of the change in insulin absorption upon oral administration of bile salts and/or peptides represented by SEQ ID NOS: 1 to 18. The absorption rate of insulin was indicated by measuring the blood glucose-lowering rate after insulin administration.
Specifically, C57BL/6 mice maintaining normal blood glucose levels were prepared, and blood glucose levels were measured using an Accu-Chek glucometer before administering insulin with bile salts and/or cationic peptides. Insulin, along with bile salts and/or cationic peptides, was administered directly into the stomach using a zonde, and blood glucose changes were measured over time.

[2] = system: C57BL/6 mice maintaining normal blood glucose levels; test: Insulin absorption in sublingual mucosal tissue, blood glucose lowering after sublingual administration; settings: sublingual 10 μl; 100 mM taurocholate and/or 1 μM SEQ6 with 2U/kg insulin; FIG. 1
Description: All cationic peptides used in the experiment were synthesized by AnyGen Co., Ltd. The absorption rate of insulin was indicated by measuring the blood glucose-lowering rate after insulin administration.
Specifically, C57BL/6 mice (Orient Bio, Korea) maintaining normal blood glucose levels were anesthetized by intraperitoneal injection of Ketamine/Xylazine (100 mg/kg and 10 mg/kg, respectively) (BK Pharm, Korea). […] Each experimental group received 10 μl of the solution administered to the sublingual mucosa, and blood glucose changes were measured over time.

[3] = system: C57BL/6 mice maintaining normal blood glucose levels; test: Insulin absorption upon topical (skin) application, blood glucose change; settings: 50 μl on shaved skin, with mixture of taurocholate and SEQ6; FIG. 8
From the text: Examination was made of the change in insulin absorption upon topical application due to bile salts and/or peptides represented by SEQ ID NO: 1 to SEQ ID NO: 18. The absorption rate of insulin was indicated by measuring the blood glucose-lowering rate after insulin administration. Specifically, C57BL/6 mice maintaining normal blood glucose levels were shaved on the back using a depilatory cream the day before the experiment. On the day of the experiment, the mice were anesthetized by intraperitoneal injection of Ketamine/Xylazine (100 mg/kg and 10 mg/kg, respectively). After confirming stable anesthesia, blood glucose levels were measured using an Accu-Chek glucometer before administering insulin with bile salts and/or cationic peptides. A 50 μl volume of the solution was applied to the shaved skin, and blood glucose changes were measured over time.

Substance	insulin absorption (blood glucose-lowering effect) upon oral administration [1]	blood glucose-lowering rate by insulin (insulin absorption through sublingual mucosal tissue) [2]	blood glucose-lowering effect of insulin upon topical application [3]
rrrrrr ([dR][dR][dR][dR][dR][dR]) [SEQ6]	significantly increases in a dose-dependent manner	low	
insulin: insulin (Humulin N, Korea Lilly, Korea)			excellent blood glucose-lowering effect
RRRRRR [SEQ2]	significantly increases in a dose-dependent manner		
